Where a name gives a salt, the structure may show the parent alone.

The record followed here is US20190322676A1, “CERAMIDE GALACTOSYLTRANSFERASE INHIBITORS FOR THE TREATMENT OF DISEASE” (BioMarin Pharmaceutical Inc., priority 2016, published 2019).

The experiment deals with T1, human CGT (ceramide galactosyltransferase), CHO/CGT lysate (Homo sapiens, UniProt Q16880).
T1 construct: Full-length human CGT cDNA was cloned into the BamH1/Xho1 site of pcDNA3.1 (+); expressed in transfected cells; host or cells: Chinese hamster ovary (CHO) cells; lysate prepared with M-PER
T1 sequence (Q16880 21-541): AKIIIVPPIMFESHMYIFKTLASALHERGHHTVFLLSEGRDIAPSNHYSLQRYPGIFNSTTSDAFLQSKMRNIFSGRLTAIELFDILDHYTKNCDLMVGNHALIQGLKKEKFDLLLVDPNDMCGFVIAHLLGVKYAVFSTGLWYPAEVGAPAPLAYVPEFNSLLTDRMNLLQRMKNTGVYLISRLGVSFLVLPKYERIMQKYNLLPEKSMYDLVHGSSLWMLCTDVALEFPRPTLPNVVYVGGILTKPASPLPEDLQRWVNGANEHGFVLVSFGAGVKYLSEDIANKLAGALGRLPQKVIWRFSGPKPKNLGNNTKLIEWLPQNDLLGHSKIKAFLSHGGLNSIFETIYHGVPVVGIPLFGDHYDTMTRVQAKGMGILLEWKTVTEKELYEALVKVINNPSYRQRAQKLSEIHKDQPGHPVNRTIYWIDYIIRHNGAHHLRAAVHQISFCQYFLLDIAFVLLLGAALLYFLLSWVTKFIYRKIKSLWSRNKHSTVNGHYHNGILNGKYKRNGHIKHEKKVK
Put plainly: CGT enzyme assay, RapidFire/MS/MS readout (Table 1 ranges with one asterisk *). The settings on record: RapidFire method (range with one asterisk *). The class given is biochemical. An outline of the steps: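 IC50s come from variable-slope dose-response fits of internal-standard-normalized C6-NBD-dihydro-galactosylceramide, measured by RapidFire/MS/MS (ESI negative). Reactions: 1 h, 37 °C, human CGT-expressing CHO lysate (4 μg), 0.001–50 μM compound, 10 μM NBD-dihydro-ceramide, 17.5 μM UDP-galactose, 0.5% DMSO, pH 7.2; 0.01% Tween 80 added for ** values.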
`CCCCOc1cc(C(F)(F)[C@@H](NS(=O)(=O)c2ccc3cc(OC4CCCC4)ccc3c2)C(=O)N2CCC(N)CC2)ccc1Cl` [Compound 126-2, (S)—N-(3-(4-aminopiperidin-1-yl)-1-(3-butoxy-4-chlorophenyl)-1,1-difluoro-3-oxopropan-2-yl)-6-(cyclopentyloxy)naphthalene-2-sulfonamide] gave a half-maximal inhibitory concentration (IC50) of 1 to 10 µM. In turn, `CCCCOc1cc(C(F)(F)[C@H](NS(=O)(=O)c2ccc(OCC3CCCCC3)cc2)C(=O)N2CCC(N)CC2)ccc1Cl` [Compound 127-1, (R)—N-(3-(4-aminopiperidin-1-yl)-1-(3-butoxy-4-chlorophenyl)-1,1-difluoro-3-oxopropan-2-yl)-4-(cyclohexylmethoxy)benzenesulfonamide] yielded an IC50 of under 1 µM. Then `CCCCOc1cc(C(F)(F)[C@@H](NS(=O)(=O)c2ccc(OCC3CCCCC3)cc2)C(=O)N2CCC(N)CC2)ccc1Cl` [Compound 127-2, (S)—N-(3-(4-aminopiperidin-1-yl)-1-(3-butoxy-4-chlorophenyl)-1,1-difluoro-3-oxopropan-2-yl)-4-(cyclohexylmethoxy)benzenesulfonamide], with 1 to 10 µM; and `COc1cc(C(F)(F)[C@H](NS(=O)(=O)c2ccc(OCC3CCCCC3)cc2)C(=O)N2C3CCC2CC(N)C3)ccc1Br` (stereo partly drawn) [Compound 128-1, N-((2R)-3-(3-amino-8-azabicyclo[3.2.1]octan-8-yl)-1-(4-bromo-3-methoxyphenyl)-1,1-difluoro-3-oxopropan-2-yl)-4-(cyclohexylmethoxy) benzenesulfonamide], with under 1 µM; and `COc1cc(C(F)(F)[C@@H](NS(=O)(=O)c2ccc(OCC3CCCCC3)cc2)C(=O)N2C3CCC2CC(N)C3)ccc1Br` (stereo partly drawn) [Compound 128-2, N-((2S)-3-(3-amino-8-azabicyclo[3.2.1]octan-8-yl)-1-(4-bromo-3-methoxyphenyl)-1,1-difluoro-3-oxopropan-2-yl)-4-(cyclohexylmethoxy)benzenesulfonamide], with 1 to 10 µM. Then `COc1cc(C(F)(F)[C@H](NS(=O)(=O)c2ccc(OCC3CCCCC3)cc2)C(=O)N2CCC(N)CC2)ccc1Cl` [Compound 129-1, (R)—N-(3-(4-aminopiperidin-1-yl)-1-(4-chloro-3-methoxyphenyl)-1,1-difluoro-3-oxopropan-2-yl)-4-(cyclohexylmethoxy)benzenesulfonamide], with 1 to 10 µM. In the case of `COc1cc(C(F)(F)[C@@H](NS(=O)(=O)c2ccc(OCC3CCCCC3)cc2)C(=O)N2CCC(N)CC2)ccc1Cl` [Compound 129-2, (S)—N-(3-(4-aminopiperidin-1-yl)-1-(4-chloro-3-methoxyphenyl)-1,1-difluoro-3-oxopropan-2-yl)-4-(cyclohexylmethoxy)benzenesulfonamide], the IC50 was in the range of 10 to 30 µM. `NC1CC2CCC(C1)N2C(=O)[C@@H](NS(=O)(=O)c1ccc2cc(OC3CCCC3)ccc2c1)C(F)(F)c1ccc(Cl)s1` (stereo partly drawn) [Compound 130-1, N-((2R)-3-(3-amino-8-azabicyclo[3.2.1]octan-8-yl)-1-(5-chlorothiophen-2-yl)-1,1-difluoro-3-oxopropan-2-yl)-6-(cyclopentyloxy)naphthalene-2-sulfonamide] registered an IC50 of 1 to 10 µM. To `NC1CC2CCC(C1)N2C(=O)[C@H](NS(=O)(=O)c1ccc2cc(OC3CCCC3)ccc2c1)C(F)(F)c1ccc(Cl)s1` (stereo partly drawn) [Compound 130-2, N-((2S)-3-(3-amino-8-azabicyclo[3.2.1]octan-8-yl)-1-(5-chlorothiophen-2-yl)-1,1-difluoro-3-oxopropan-2-yl)-6-(cyclopentyloxy)naphthalene-2-sulfonamide] belongs 10 to 30 µM; to `NC1CCN(C(=O)[C@@H](NS(=O)(=O)c2ccc3cc(OC4CCCC4)ccc3c2)C(F)(F)c2ccc(Cl)s2)CC1` [Compound 131-1, (R)—N-(3-(4-aminopiperidin-1-yl)-1-(5-chlorothiophen-2-yl)-1,1-difluoro-3-oxopropan-2-yl)-6-(cyclopentyloxy)naphthalene-2-sulfonamide], 1 to 10 µM; to `NC1CCN(C(=O)[C@H](NS(=O)(=O)c2ccc3cc(OC4CCCC4)ccc3c2)C(F)(F)c2ccc(Cl)s2)CC1` [Compound 131-2, (S)—N-(3-(4-aminopiperidin-1-yl)-1-(5-chlorothiophen-2-yl)-1,1-difluoro-3-oxopropan-2-yl)-6-(cyclopentyloxy)naphthalene-2-sulfonamide], 1 to 10 µM.

Turning to `N[C@H]1CCCN(C(=O)[C@@H](NS(=O)(=O)c2ccc3cc(OC4CCCC4)ccc3c2)C(F)(F)c2ccc(Br)cc2)C1` [Compound 132-1, N—((R)-3-((S)-3-aminopiperidin-1-yl)-1-(4-bromophenyl)-1,1-difluoro-3-oxopropan-2-yl)-6-(cyclopentyloxy)naphthalene-2-sulfonamide trifluoroacetate], the IC50 is 1 to 10 µM. In the case of `N[C@H]1CCCN(C(=O)[C@H](NS(=O)(=O)c2ccc3cc(OC4CCCC4)ccc3c2)C(F)(F)c2ccc(Br)cc2)C1` [Compound 132-2, N—((S)-3-((S)-3-aminopiperidin-1-yl)-1-(4-bromophenyl)-1,1-difluoro-3-oxopropan-2-yl)-6-(cyclopentyloxy)naphthalene-2-sulfonamide trifluoroacetate], the IC50 was 10 to 30 µM. To `NC1CC2CCC(C1)N2C(=O)[C@@H](NC(=O)C(=O)c1ccc2cc(OC3CCCC3)ccc2c1)C(F)(F)c1ccc(-c2ccc(Cl)cc2)cc1` (stereo partly drawn) [Compound 133-1, N-((2R)-3-(3-amino-8-azabicyclo[3.2.1]octan-8-yl)-1-(4′-chloro-[1,1′-biphenyl]-4-yl)-1,1-difluoro-3-oxopropan-2-yl)-2-(6-(cyclopentyloxy)naphthalen-2-yl)-2-oxoacetamide trifluoroacetate] belongs 1 to 10 µM; to `NC1CC2CCC(C1)N2C(=O)[C@H](NC(=O)C(=O)c1ccc2cc(OC3CCCC3)ccc2c1)C(F)(F)c1ccc(-c2ccc(Cl)cc2)cc1` (stereo partly drawn) [Compound 133-2, N-((2S)-3-(3-amino-8-azabicyclo[3.2.1]octan-8-yl)-1-(4′-chloro-[1,1′-biphenyl]-4-yl)-1,1-difluoro-3-oxopropan-2-yl)-2-(6-(cyclopentyloxy)naphthalen-2-yl)-2-oxoacetamide trifluoroacetate], 30 to 100 µM; to `NC1CCN(C(=O)[C@@H](NC(=O)C(=O)c2ccc(OCC3CCCCC3)cc2)C(F)(F)c2ccc(-c3ccc(Cl)cc3)cc2)CC1` [Compound 134-1, (R)—N-(3-(4-aminopiperidin-1-yl)-1-(4′-chloro-[1,1′-biphenyl]-4-yl)-1,1-difluoro-3-oxopropan-2-yl)-2-(4-(cyclohexylmethoxy)phenyl)-2-oxoacetamide trifluoroacetate], 10 to 30 µM. Molecule `NC1CCN(C(=O)[C@H](NC(=O)C(=O)c2ccc(OCC3CCCCC3)cc2)C(F)(F)c2ccc(-c3ccc(Cl)cc3)cc2)CC1` [Compound 134-2, (S)—N-(3-(4-aminopiperidin-1-yl)-1-(4′-chloro-[1,1′-biphenyl]-4-yl)-1,1-difluoro-3-oxopropan-2-yl)-2-(4-(cyclohexylmethoxy)phenyl)-2-oxoacetamide trifluoroacetate] displayed an IC50 of 30 to 100 µM. `COc1cc(C(F)(F)[C@H](NS(=O)(=O)c2ccc3cc(OC4CCCC4)ccc3c2)C(=O)N2C3CCC2CC(N)C3)ccc1-c1ccc(Cl)cc1` (stereo partly drawn) [Compound 135-1, N-((2R)-3-(3-amino-8-azabicyclo[3.2.1]octan-8-yl)-1-(4′-chloro-2-methoxy-[1,1′-biphenyl]-4-yl)-1,1-difluoro-3-oxopropan-2-yl)-6-(cyclopentyloxy) naphthalene-2-sulfonamide trifluoroacetate] came in with an IC50 of under 1 µM. `COc1cc(C(F)(F)[C@@H](NS(=O)(=O)c2ccc3cc(OC4CCCC4)ccc3c2)C(=O)N2C3CCC2CC(N)C3)ccc1-c1ccc(Cl)cc1` (stereo partly drawn) [Compound 135-2, N-((2S)-3-(3-amino-8-azabicyclo[3.2.1]octan-8-yl)-1-(4′-chloro-2-methoxy-[1,1′-biphenyl]-4-yl)-1,1-difluoro-3-oxopropan-2-yl)-6-(cyclopentyloxy)naphthalene-2-sulfonamide trifluoroacetate] returned an IC50 of 1 to 10 µM.

For `NC1CC2CCC(C1)N2C(=O)[C@@H](NC(=O)[C@H](O)c1ccc2cc(OC3CCCC3)ccc2c1)C(F)(F)c1ccc(-c2ccc(Cl)cc2)cc1` (stereo partly drawn) [Compound 136-1, (2R)—N-((2R)-3-(3-amino-8-azabicyclo[3.2.1]octan-8-yl)-1-(4′-chloro-[1,1′-biphenyl]-4-yl)-1,1-difluoro-3-oxopropan-2-yl)-2-(6-(cyclopentyloxy)naphthalen-2-yl)-2-hydroxyacetamide trifluoroacetate], the IC50 was in the range of 1 to 10 µM. For `NC1CC2CCC(C1)N2C(=O)[C@H](NC(=O)[C@@H](O)c1ccc2cc(OC3CCCC3)ccc2c1)C(F)(F)c1ccc(-c2ccc(Cl)cc2)cc1` (stereo partly drawn) [Compound 136-2, (2S)—N-((2S)-3-(3-amino-8-azabicyclo[3.2.1]octan-8-yl)-1-(4′-chloro-[1,1′-biphenyl]-4-yl)-1,1-difluoro-3-oxopropan-2-yl)-2-(6-(cyclopentyloxy)naphthalen-2-yl)-2-hydroxyacetamide trifluoroacetate], the IC50 fell in the range of 30 to 100 µM.

A word on the IC50: it is the midpoint of a concentration-inhibition curve. A higher IC50 goes with lower potency.
